In ChEMBL document CHEMBL6134849, “A Water-Soluble Aggregation-Induced Emission Photosensitizer with Intrinsic Antibacterial Activity as an Antiplanktonic and Antibiofilm Therapeutic Agent” (J Med Chem, 2025):
The source made the active and inactive calls. The rule behind the calls is not given here.

What was measured:
[1] = Induction of type-I ROS generation in PBS assessed as increase in nonspecific ROS by measuring increase in DHR123 fluorescence intensity at 10 uM irradiated with 660 nm 60 mW/cm2 light for 15 mins by DHR123 probe based plate reader analysis; type: functional
[2] = Induction of type-II ROS generation in PBS assessed as increase in nonspecific ROS by measuring increase in DHR123 fluorescence intensity at 10 uM irradiated with 660 nm 60 mW/cm2 light for 15 mins by DHR123 probe based plate reader analysis; type: functional
[3] = Induction of type-I ROS generation in PBS assessed as increase in hydroxyl radical by measuring increase in HPF fluorescence intensity at 10 uM irradiated with 660 nm 60 mW/cm2 light for 15 mins by HPF probe based plate reader analysis; type: functional
[4] = Induction of […] ROS generation in PBS assessed as increase in hydroxyl radical by measuring increase in HPF fluorescence intensity at 10 uM irradiated with 660 nm 60 mW/cm2 light for 15 mins by HPF probe based plate reader analysis; type: functional
[5] = Induction of type-I ROS generation in PBS assessed as increase in singlet oxygen by measuring increase in SOSG fluorescence intensity at 10 uM irradiated with 660 nm 60 mW/cm2 light for 15 mins by SOSG probe based plate reader analysis; type: functional
[6] = Induction of type-II ROS generation in PBS assessed as increase in singlet oxygen by measuring increase in SOSG fluorescence intensity at 10 uM irradiated with 660 nm 60 mW/cm2 light for 15 mins by SOSG probe based plate reader analysis; type: functional
Pseudomonas aeruginosa = assay: Antibacterial activity against Pseudomonas aeruginosa ATCC 27853 in presence of Muller-Hinton medium by broth microdilution method; type: functional
Staphylococcus aureus [7] = assay: Antibacterial activity against Staphylococcus aureus at 6.25 uM measured within 2 hrs in absence of light irradiation by time-kill kinetics assay relative to control; type: functional
Staphylococcus aureus [8] = assay: Antibiofilm activity against Staphylococcus aureus assessed as mature biofilm eradication incubated for 24 hrs under dark condition in absence of light irradiation by crystal violet staining based analysis; type: functional, organism-based
Cell membrane [9] = assay: Induction of cell membrane depolarization in Staphylococcus aureus assessed as increase in fluorescence intensity in absence of light irradiation by Disc3(5) dye based fluorescence assay; type: subcellular
Cell membrane [10] = assay: Induction of cell membrane damage in Staphylococcus aureus at 12.5 to 25 uM incubated for 3 hrs under dark condition by scanning electron microscopic analysis; type: subcellular; details: dose 12.5-25 µM
[11] = molecular target: T1, DNA gyrase (Staphylococcus aureus) (UniProt P0A0K8+P20831); assay: Inhibition of Staphylococcus aureus DNA gyrase supercoiling using relaxed pBR322 as substrate at 3.125 to 25 uM incubated for 30 mins in absence of light irradiation by gel based method; type: protein-complex assay; details: dose 3.125-25 µM
T1 sequence (P0A0K8 2-644 limits assumed): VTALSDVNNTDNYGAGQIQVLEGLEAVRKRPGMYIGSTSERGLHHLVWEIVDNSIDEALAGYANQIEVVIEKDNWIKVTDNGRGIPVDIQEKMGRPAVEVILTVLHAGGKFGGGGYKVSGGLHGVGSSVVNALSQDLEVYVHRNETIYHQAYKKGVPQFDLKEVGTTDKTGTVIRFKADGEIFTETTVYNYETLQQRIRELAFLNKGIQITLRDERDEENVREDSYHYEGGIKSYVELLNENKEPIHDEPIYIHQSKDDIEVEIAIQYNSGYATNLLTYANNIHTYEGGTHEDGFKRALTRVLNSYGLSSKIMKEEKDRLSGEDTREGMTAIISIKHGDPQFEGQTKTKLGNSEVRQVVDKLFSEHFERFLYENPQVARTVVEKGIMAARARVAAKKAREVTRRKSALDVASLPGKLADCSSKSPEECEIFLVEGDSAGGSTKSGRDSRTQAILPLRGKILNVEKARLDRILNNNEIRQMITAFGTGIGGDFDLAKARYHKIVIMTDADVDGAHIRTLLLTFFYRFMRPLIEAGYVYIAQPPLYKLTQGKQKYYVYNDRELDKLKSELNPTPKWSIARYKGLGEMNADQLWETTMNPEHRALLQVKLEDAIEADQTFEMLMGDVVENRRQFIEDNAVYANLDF
T1 sequence (P20831 whole entry partner): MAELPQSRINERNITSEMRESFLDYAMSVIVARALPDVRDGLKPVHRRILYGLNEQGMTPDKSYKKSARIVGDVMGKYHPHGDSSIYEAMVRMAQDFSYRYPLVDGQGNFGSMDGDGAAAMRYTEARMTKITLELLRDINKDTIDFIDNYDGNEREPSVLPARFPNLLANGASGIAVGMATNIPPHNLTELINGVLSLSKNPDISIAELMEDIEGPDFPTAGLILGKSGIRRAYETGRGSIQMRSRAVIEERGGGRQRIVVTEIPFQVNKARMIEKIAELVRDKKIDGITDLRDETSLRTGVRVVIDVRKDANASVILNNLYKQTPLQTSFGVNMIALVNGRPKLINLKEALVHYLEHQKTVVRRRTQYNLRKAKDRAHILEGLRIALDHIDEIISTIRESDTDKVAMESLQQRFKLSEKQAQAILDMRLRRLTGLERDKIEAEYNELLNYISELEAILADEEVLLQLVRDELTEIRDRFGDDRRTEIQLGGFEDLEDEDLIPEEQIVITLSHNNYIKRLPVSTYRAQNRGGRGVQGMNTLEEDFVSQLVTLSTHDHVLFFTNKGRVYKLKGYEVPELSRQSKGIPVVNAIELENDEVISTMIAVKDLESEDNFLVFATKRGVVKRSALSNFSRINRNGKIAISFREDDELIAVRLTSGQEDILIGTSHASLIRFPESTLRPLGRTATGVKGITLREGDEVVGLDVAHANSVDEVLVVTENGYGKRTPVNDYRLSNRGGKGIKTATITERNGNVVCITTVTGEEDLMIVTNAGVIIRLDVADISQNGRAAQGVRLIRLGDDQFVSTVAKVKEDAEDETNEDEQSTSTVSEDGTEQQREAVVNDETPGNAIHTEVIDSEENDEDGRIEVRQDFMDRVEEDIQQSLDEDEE

[12] = molecular target: T1, DNA gyrase (Staphylococcus aureus); assay: Inhibition of Staphylococcus aureus DNA gyrase supercoiling assessed as decrease in supercoiled DNA band intensity using relaxed pBR322 as substrate at 25 uM incubated for 30 mins in absence of light irradiation by gel based method; type: protein-complex assay
Staphylococcus aureus [13] = assay: Downregulation of div1B expression level in Staphylococcus aureus at 6.25 uM incubated for 1 hr in absence of light irradiation; type: functional
Staphylococcus aureus [14] = assay: Downregulation of ftsA expression level in Staphylococcus aureus at 6.25 uM incubated for 1 hr in absence of light irradiation; type: functional
Staphylococcus aureus [15] = assay: Downregulation of sepF expression level in Staphylococcus aureus at 6.25 uM incubated for 1 hr in absence of light irradiation; type: functional
Staphylococcus aureus [16] = assay: Downregulation of sle1 expression level in Staphylococcus aureus at 6.25 uM incubated for 1 hr in absence of light irradiation; type: functional
Staphylococcus aureus [17] = assay: Downregulation of spoVG expression level in Staphylococcus aureus at 6.25 uM incubated for 1 hr in absence of light irradiation; type: functional
Staphylococcus aureus [18] = assay: Downregulation of ftsZ expression level in Staphylococcus aureus at 6.25 uM incubated for 1 hr in absence of light irradiation; type: functional
Staphylococcus aureus [19] = assay: Downregulation of lytH expression level in Staphylococcus aureus at 6.25 uM incubated for 1 hr in absence of light irradiation; type: functional
Staphylococcus aureus [20] = assay: Downregulation of engB expression level in Staphylococcus aureus at 6.25 uM incubated for 1 hr in absence of light irradiation; type: functional
Staphylococcus aureus [21] = assay: Downregulation of murC expression level in Staphylococcus aureus at 6.25 uM incubated for 1 hr in absence of light irradiation; type: functional
Staphylococcus aureus [22] = assay: Downregulation of femX expression level in Staphylococcus aureus at 6.25 uM incubated for 1 hr in absence of light irradiation; type: functional
Staphylococcus aureus [23] = assay: Downregulation of murB expression level in Staphylococcus aureus at 6.25 uM incubated for 1 hr in absence of light irradiation; type: functional
Staphylococcus aureus [24] = assay: Downregulation of murF expression level in Staphylococcus aureus at 6.25 uM incubated for 1 hr in absence of light irradiation; type: functional
Staphylococcus aureus [25] = assay: Downregulation of murG expression level in Staphylococcus aureus at 6.25 uM incubated for 1 hr in absence of light irradiation; type: functional
Staphylococcus aureus [26] = assay: Downregulation of glmM expression level in Staphylococcus aureus at 6.25 uM incubated for 1 hr in absence of light irradiation; type: functional
Staphylococcus aureus [27] = assay: Downregulation of uppP expression level in Staphylococcus aureus at 6.25 uM incubated for 1 hr in absence of light irradiation; type: functional
Staphylococcus aureus [28] = assay: Downregulation of murI expression level in Staphylococcus aureus at 6.25 uM incubated for 1 hr in absence of light irradiation; type: functional
Staphylococcus aureus [29] = assay: Downregulation of serS expression level in Staphylococcus aureus at 6.25 uM incubated for 1 hr in absence of light irradiation; type: functional
Staphylococcus aureus [30] = assay: Downregulation of ddl expression level in Staphylococcus aureus at 6.25 uM incubated for 1 hr in absence of light irradiation; type: functional
Staphylococcus aureus [31] = assay: Downregulation of murD expression level in Staphylococcus aureus at 6.25 uM incubated for 1 hr in absence of light irradiation; type: functional
Staphylococcus aureus [32] = assay: Downregulation of femB expression level in Staphylococcus aureus at 6.25 uM incubated for 1 hr in absence of light irradiation; type: functional
Staphylococcus aureus [33] = assay: Downregulation of alr1 expression level in Staphylococcus aureus at 6.25 uM incubated for 1 hr in absence of light irradiation; type: functional

SMILES: C#CCC[n+]1c(/C=C/c2ccc(-c3ccc(N(c4ccc(OCCC[N+](C)(C)C)cc4)c4ccc(OCCC[N+](C)(C)C)cc4)cc3)s2)sc2ccccc21.[Br-].[Br-].[Br-]
- Activity [1]: Active
- Activity [2]: Active
- Activity [3]: Active
- Activity [4]: Active
- Activity [5]: Active
- Activity [6]: Active
- MIC (Pseudomonas aeruginosa): ≤ 100 µM
- Activity (Staphylococcus aureus [7]): 100%
- Activity (Staphylococcus aureus [8]): Active
- Activity (Cell membrane [9]): Dose-dependent-effect
- Activity (Cell membrane [10]): Active
- inhibition [11]: Active
- inhibition [12]: Active
- Activity (Staphylococcus aureus [13]): Active
- Activity (Staphylococcus aureus [14]): Active
- Activity (Staphylococcus aureus [15]): Active
- Activity (Staphylococcus aureus [16]): Active
- Activity (Staphylococcus aureus [17]): Active
- Activity (Staphylococcus aureus [18]): Active
- Activity (Staphylococcus aureus [19]): Active
- Activity (Staphylococcus aureus [20]): Active
- Activity (Staphylococcus aureus [21]): Active
- Activity (Staphylococcus aureus [22]): Active
- Activity (Staphylococcus aureus [23]): Active
- Activity (Staphylococcus aureus [24]): Active
- Activity (Staphylococcus aureus [25]): Active
- Activity (Staphylococcus aureus [26]): Active
- Activity (Staphylococcus aureus [27]): Active
- Activity (Staphylococcus aureus [28]): Active
- Activity (Staphylococcus aureus [29]): Active
- Activity (Staphylococcus aureus [30]): Active
- Activity (Staphylococcus aureus [31]): Active
- Activity (Staphylococcus aureus [32]): Active
- Activity (Staphylococcus aureus [33]): Active
